Measurements reported in paper PMC3948918 (PLoS ONE, 2014).
Like-named read-outs stand apart in the source and are kept apart here. Numbered stars: 1 amine (or outer) side, 2 acyl side, 3 side chain; on linkers, the order of the positions; unused ones are H or OH. Bridge positions count the residues as written; N and C are the ends. Square brackets hold non-standard residues; d marks the D form. Peptide text beside a SMILES is read from it. Adda = CO[C@@H](Cc1ccccc1)[C@@H](C)/C=C(C)/C=C/[C@H](N[*:1])[C@H](C)C(=O)[*:2]; dAsp(3S-Me) = C[C@H](C(=O)[*:3])[C@@H](N[*:1])C(=O)[*:2]; d(γGlu) = O=C(O)[C@@H](CCC(=O)[*:2])N[*:1]; NMeDha = C=C(NC)C(=O)O

Assays:
[1] = tested on: OATP1B1- and OATP1B3-expressing HeLa or RKO cell lines
HeLa Control cells [2] = details: cited from earlier work
PP2A = details: cited from earlier work
[3] = tested on: OATP1B1-expressing HeLa cells; details: read-out: IC50 HeLa B1; cited from earlier work
[4] = tested on: OATP1B3-expressing HeLa cells; details: cited from earlier work
HeLa Control cells [5] = details: 24 h
[6] = tested on: OATP1B3-expressing HeLa cells; details: for IC50: human
OATP1B1 = assay: in vitro; details: human

| SMILES | toxicity in the present assay compared with 1 (times lower) [1] | transporter selectivity (in words) [1] | IC50 ([1]; read-out: IC50 values (potency grouping)) [nM] | IC50 (HeLa Control cells [2]) [nM] | PP2A inhibition compared with 1 (PP2A) | IC50 [3] [nM] | Ratio IC50 B1/B3 HeLa [4] | IC50 ([4]; read-out: IC50 HeLa B3) [nM] | IC50 (HeLa Control cells [5]) [nM] | Ratio IC50 B1/B3 HeLa [6] | IC50 [6] [nM] | IC50 values (potency grouping) [1] | IC50 (OATP1B1) [nM] |
| --- | --- | --- | --- | --- | --- | --- | --- | --- | --- | --- | --- | --- | --- |
| C=C1C(=O)N[C@H](C)C(=O)N[C@@H](CCCNC(=N)N)C(=O)N[C@@H](C(=O)O)[C@H](C)C(=O)N[C@@H](CCCNC(=N)N)C(=O)N[C@@H](/C=C/C(C)=C/[C@H](C)[C@H](Cc2ccccc2)OC)[C@H](C)C(=O)N[C@@H](C(=O)O)CCC(=O)N1C [compound 10, RR] (R[Adda][d(γGlu)][NMeDha][dA]R[dAsp(3S-Me)]-OH; lactam N-7) | about 500 times | most OATP1B3 selective | > 100 | > 10000 | about twenty times weaker | 3800 | 6.6 | 580 |  |  |  |  |  |
| C/C=C1/NC(=O)CC[C@H](C(=O)O)NC(=O)[C@@H](C)[C@H](/C=C/C(C)=C/[C@H](C)[C@H](Cc2ccccc2)OC)NC(=O)[C@H](Cc2ccc(O)cc2)NC(=O)C[C@H](C(=O)O)NC(=O)[C@H](CCc2ccc(O)cc2)NC(=O)[C@@H](C)NC1=O [compound 18, [D-Asp^3,(E)-Dhb^7]MC-HtyY] |  | most OATP1B3 selective |  |  |  |  |  |  | > 10 | 6.6 | 0.078 | sub-nanomolar | 0.515 |
| C/C=C1/NC(=O)CC[C@H](C(=O)O)NC(=O)[C@@H](C)[C@H](/C=C/C(C)=C/[C@H](C)[C@H](Cc2ccccc2)OC)NC(=O)[C@H](CCc2ccc(O)cc2)NC(=O)C[C@H](C(=O)O)NC(=O)[C@H](CCc2ccc(O)cc2)NC(=O)[C@@H](C)NC1=O [compound 19, [D-Asp^3,(E)-Dhb^7]MC-HtyHty] |  |  |  |  |  |  |  |  | > 10 | 2.2 | 0.18 | sub-nanomolar | 0.39 |
